In patent US9493421B2, “Acridinedione derivatives for treating pigmentation disorders and ageing of the skin” (PIERRE FABRE DERMO-COSMETIQUE, priority 2011, dated 2016):
“And” between values parts separate entries of the source, which are not always exact repeats. Equal values may be shown once.

Legend:
[1] = set-up: key: very good: 0.1 to 3.0; good: 3.01 to 50; average: 50.1 to 1000; poor: >1000; none: NEGATIVE; conditions: reference products of the interpretation scale; cited from earlier work
[2] = tested on: B16-F10 cells; assay: Assay of melanin in B16-F10 cells (colorimetric, α-MSH stimulated); format: cell-based, murine; conditions: Mus musculus, B16-F10, 72 h, 0.1 μM α-MSH, negative = inhibition, positive = stimulation, read-out: Melanin synthesis on B16
Experimental: It is a test to measure the synthesis of melanin by colorimetric assay on a murine melanoma cell line: line B16-F10. With this test it is possible to evaluate the depigmenting or propigmenting property of active ingredients.
The B16-F10 cells were seeded in 96-well plates in DMEM medium supplemented with FCS (foetal calf serum), and incubated 24 h at 37° C., 5% CO2. The cells were stimulated with 0.1 μM α-MSH (to stimulate melanin synthesis, the observed stimulation being about 150%) and treated 72 h with the active ingredients to be assayed. Each concentration of active ingredient was assayed at least in triplicate. Total melanin and intracellular melanin dissolved in lysis buffer were assayed by absorbance read-off at 405 nm. The total proteins were assayed in the lysate and the results expressed in mg melanin/mg proteins. Percentage activity was calculated as follows: […]
A negative value indicates inhibition of the melanin synthesis and translates depigmenting activity of the compound, whereas a positive value indicates induced melanin synthesis and translates a propigmenting property of the molecule.
• B16-F10 cell lines between P10 and P20 (murine melanocytes) (ATCC, CRL-6475); • reagents: DMEM without Phenol Red (GIBCOBRL, 118800-028), 200 mM glutamax-I supplement (GIBCOBRL, 35050-038), glucose (SIGMA, G7021), PBS (GIBCOBRL, 14190-094), foetal calf serum (Invitrogen, 10270-098), trypsin-EDTA (GIBCOBRL, 25300-054), NaOH (Sigma, S8045-500G), DMSO (Sigma, 471267-11), Nle, Phe-Melanocyte Stimulating Hormone (Sigma, M-8764), melanin (Sigma, M-0418), BCA-COPPER (SIGMA, B9643 and C2284), BSA (SIGMA, P0914) B) Test to Study Anti-Oxidizing Capability Using Chemiluminescence (Photochem Analytic Jena) Principle

[3] = Test to study anti-oxidizing capability using chemiluminescence (Photochem Analytic Jena); format: biochemical; conditions: quantity of sample needed for activity equivalent to 1 μg Trolox, superoxide anion trapping
Experimental: This test is used to determine the anti-oxidizing capability of the molecules. It is a method which generates free radicals via photochemical signal. The intensity of oxidation is 1000 times higher than obtained under normal conditions.
Detection is performed using chemiluminescence. This allows evaluation of water-soluble and liposoluble antioxidant molecules or extracts
The results are expressed in equivalent quantity of vitamin C or Trolox (6-hydroxy-2,5,7,8-tetramethylchroman-2-carboxylic acid) respectively. Sensitivity is in the order of one nanomole.
The anti-oxidizing activity studied in this test represents the capability of specifically trapping superoxide anions by chemiluminescence.
The quantified results are expressed in Trolox equivalent (standard) or in “μg of product per 1 μg of Trolox”. This means that a quantity x of sample is needed to obtain activity equivalent to the activity detected with 1 μg of standard. It is the antioxidizing power in relation to a reference; this avoids having to take into account the concentrations tested.
The superoxide radical: O2^∘^− is generated by photochemical reaction: L+hv(UV)+O2→L*O2→L^∘^++O2^∘^− • L*: luminol in the excited state L^∘+: luminol radical Signal Detection
Part of the superoxide anions are inhibited by the antioxidants. The remaining free radicals are quantified by chemiluminescence. L^∘^++O2^∘^−→N2+AP*^2−→AP^2−+hv (luminescence)
AP*^2−: aminophthalate in the excited state

[4] = Log P (octanol/water partition coefficient); format: physicochemical
Excerpt: Log P, also called Log Kow, is a measurement of the differential solubility of chemical compounds in two solvents (octanol/water partition coefficient).
Log P is equal to the logarithm of the ratio of the concentrations of the examined substance in octanol and in water. Log P=Log(Coct/Cwater). With this value it is possible to assess the hydrophilic or hydrophobic (lipophilic) nature of a molecule. If Log P is positive and very high, this means that the molecule under consideration is much more soluble in octanol than in water, which reflects its lipophilic nature, and conversely. A value of Log P=0 means that the molecule is distributed equally between the two phases and Coct=Cwater (C. Hansch, J. F. Quinlan, G. L. Lawrence, Linear free energy relationship between partition coefficients and the aqueous solubility of organic liquids, J. Org. Chem., 33 (1968), 347-350; C. Hansch, A. Leo, Exploring QSAR—Fundamentals and Applications in Chemistry and Biology, American Chemical Society, Washington, 1995; J. Sangster, Octanol—Water Partition Coefficients: Fundamentals and Physical Chemistry, Wiley, Chichester, 1997; W. Jorgensen, E. Duffy, Advanced Drug Delivery Reviews, (54), 2002, 355-366).

For `O=C(O)CCCC[C@@H]1CCSS1` (racemic) [Lipoic acid], the “Activity (scale for interpretation of results)” value (“Activity” below) [1] is listed as “none”.
For `Cc1cc(C(C)(C)C)c(O)c(C(C)(C)C)c1` [BHT], the “Activity” value [1] is listed as “good (3.01 to 50)”.
In the case of `N[C@@H](CS)C(=O)O` [Cystein], the “Activity” value [1] is given as “average (50.1 to 1000)”.
In the case of `CCCCCCCCCCCCN1C2=C(C(=O)CC(C)(C)C2)C(c2ccc(O)c(OC)c2)C2=C1CC(C)(C)CC2=O` [Example 1, 10-dodecyl-9-(4-hydroxy-3-methoxyphenyl)-3,3,6,6-tetramethyl-3,4,6,7,9,10-hexahydroacridine-1,8(2H,5H)-dione], the activation at 2 µM ([2]; at 2 μM) is reported as -40%, the “μg sample per 1 μg of Trolox” value [3] is reported as 2.45 μg sample per 1 μg of Trolox and the logP [4] is reported as 6.3.
With `CCCCCCCCCCN1C2=C(C(=O)CC(C)(C)C2)C(c2ccc(O)c(O)c2)C2=C1CC(C)(C)CC2=O` [Example 3, 10-decyl-9-(3,4-dihydroxyphenyl)-3,3,6,6-tetramethyl-3,4,6,7,9,10-hexahydroacridine-1,8(2H,5H)-dione] the activation at 20 µM [2] was -46%, the “μg sample per 1 μg of Trolox” value [3] was 0.015 μg sample per 1 μg of Trolox and the logP [4] was 5.21.
For `CN1C2=C(C(=O)CC(c3ccccc3)C2)C(c2ccc(O)c(O)c2)C2=C1CC(c1ccccc1)CC2=O` (stereo not shown) [Example 5, 9-(3,4-dihydroxyphenyl)-10-methyl-3,6-diphenyl-3,4,6,7,9,10-hexahydroacridine-1,8(2H,5H)-dione], the “μg sample per 1 μg of Trolox” value [3] was 0.05 μg sample per 1 μg of Trolox.
In the case of `CCCCCCCCCCN1C2=C(C(=O)CC(c3ccccc3)C2)C(c2ccc(O)c(O)c2)C2=C1CC(c1ccccc1)CC2=O` (stereo not shown) [Example 6, 10-decyl-9-(3,4-dihydroxyphenyl)-3,6-diphenyl-3,4,6,7,9,10-hexahydroacridine-1,8(2H,5H)-dione], the “μg sample per 1 μg of Trolox” value [3] is reported as 0.04 μg sample per 1 μg of Trolox.
With `CCCCCCCCCCN1C2=C(C(=O)CC(C)(C)C2)C(c2cc(OC)c(O)c(OC)c2)C2=C1CC(C)(C)CC2=O` [Example 7, 10-decyl-9-(4-hydroxy-3,5-dimethoxyphenyl)-3,3,6,6-tetramethyl-3,4,6,7,9,10-hexahydroacridine-1,8(2H,5H)-dione] the activation at 10 µM [2] was -56%, the “μg sample per 1 μg of Trolox” value [3] was 0.81 μg sample per 1 μg of Trolox and the logP [4] was 5.34.
In the case of `CCCCCCCCCCCCN1C2=C(C(=O)CC(C)(C)C2)C(c2cc(C(C)(C)C)c(O)c(C(C)(C)C)c2)C2=C1CC(C)(C)CC2=O` [Example 8, 10-dodecyl-9-(3,5-di-tert-butyl-4-hydroxyphenyl)-3,3,6,6-tetramethyl-3,4,6,7,9,10-hexahydroacridine-1,8(2H,5H)-dione], the activation at 20 µM [2] is reported as -46%, the “μg sample per 1 μg of Trolox” value [3] is reported as 62 μg sample per 1 μg of Trolox and 61.9 μg sample per 1 μg of Trolox and the logP [4] is reported as > 5.
For `CCCCCCCCCCCCN1C2=C(C(=O)CC(C(C)C)C2)C(c2ccc(O)c(OC)c2)C2=C1CC(C(C)C)CC2=O` (stereo not shown) [Example 9, 10-dodecyl-9-(4-hydroxy-3-methoxyphenyl)-3,6-diisopropyl-3,4,6,7,9,10-hexahydroacridine-1,8(2H,5H)-dione], the activation at 10 µM [2] was -49%, the “μg sample per 1 μg of Trolox” value [3] was 1.57 μg sample per 1 μg of Trolox and the logP [4] was > 5.
In the case of `O=C1O[C@H]([C@@H](O)CO)C(O)=C1O` [Vitamin C], the “Activity” value [1] is given as “very good (0.1 to 3.0)”.
For Albumin, the “Activity” value [1] is given as “poor (>1000)”.
